Experimental data: US11730720B2, “ALK5 inhibitors” (THERAVANCE BIOPHARMA R&D IP, LLC, priority 2018, dated 2023)

Columns and labels:
[1] = molecular target: T1, recombinant human ALK5 (TGF-βR1) protein (Homo sapiens, UniProt P36897); assay: Biochemical ALK5 (TGF-βR1) assay to measure pKi (LANCE Ultra ULight kinase assay); conditions: apparent pKi, converted from pIC50 using the Cheng-Prusoff equation
T1 construct: purchased Life Technologies PR9075A
T1 sequence (P36897 34-503): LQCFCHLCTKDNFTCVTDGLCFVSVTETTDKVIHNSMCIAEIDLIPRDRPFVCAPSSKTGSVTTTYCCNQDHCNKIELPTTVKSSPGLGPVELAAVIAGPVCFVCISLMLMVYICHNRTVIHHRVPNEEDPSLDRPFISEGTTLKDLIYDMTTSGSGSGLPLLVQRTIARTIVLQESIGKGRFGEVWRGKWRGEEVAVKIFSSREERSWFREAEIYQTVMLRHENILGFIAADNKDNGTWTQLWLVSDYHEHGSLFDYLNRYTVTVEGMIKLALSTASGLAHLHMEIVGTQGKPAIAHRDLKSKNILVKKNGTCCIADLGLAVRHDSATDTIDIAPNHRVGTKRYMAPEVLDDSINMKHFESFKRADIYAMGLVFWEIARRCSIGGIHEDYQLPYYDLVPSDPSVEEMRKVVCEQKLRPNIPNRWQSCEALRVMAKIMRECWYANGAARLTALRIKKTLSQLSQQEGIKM
Outline: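 TR-FRET kinase format: compound dose range 10 μM–25 pM equilibrated 60 min with human ALK5 and ULight-labelled topoisomerase 2α peptide in HEPES/MgCl2 buffer pH 7.5 with DTT. Reaction started with ATP (125 μM stock, 5× final), 60 min at 37° C, stopped with EDTA/Eu-anti-phospho antibody; pKi derived from pIC50 via Cheng-Prusoff.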

[2] = system: TGF-β-stimulated SMAD3 phosphorylation in BEAS-2B cells; assay: Cellular ALK5 potency assay, inhibition of TGF-β stimulated pSMAD3 formation in BEAS-2B cells; assay type: cell-based; conditions: Homo sapiens, inhibition of TGF-β (10 ng/mL) stimulated pSMAD3 formation, 1 hour compound incubation, read-out: BEAS2B pIC50 (converted)
Outline: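 Phospho-SMAD3 was quantified by AlphaLISA in lysates of human lung epithelial BEAS-2B cells. Compound was added 1 h (37 °C, HEPES/BSA-supplemented HBSS) before a 30 min challenge with 10 ng/mL TGF-β. Values are pIC50 relative to stimulated cells without compound.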

Ki [1] [nM] | Structure (SMILES) | IC50 [2] [nM]
0.398 to 3.16 | COC(=O)[C@@H]1CN(c2cnc3ccc(-c4c[nH]nc4-c4cc(Cl)c(F)cc4F)nc3c2)CCN1 [Compound 6-28, methyl (2S)-4-[6-[3-(5-chloro-2,4-difluoro-phenyl)-1H-pyrazol-4-yl]-1,5-naphthyridin-3-yl]piperazine-2-carboxylate] | 25.1 to 158
0.0398 to 0.316 | COCc1cccc(-c2n[nH]cc2-c2ccc3ncc(-c4cnn(CC5CNC5)c4)cc3n2)c1 [Compound 14-11, 7-[1-(azetidin-3-ylmethyl)pyrazol-4-yl]-2-[3-[3-(methoxymethyl)phenyl]-1H-pyrazol-4-yl]-1,5-naphthyridine] | 25.1 to 158
0.398 to 3.16 | CN(CCN1CCNCC1)c1cnc2ccc(-c3c[nH]nc3-c3cc(Cl)c(F)cc3F)nc2c1 [Compound 6-24, 6-[3-(5-chloro-2,4-difluoro-phenyl)-1H-pyrazol-4-yl]-N-methyl-N-(2-piperazin-1-ylethyl)-1,5-naphthyridin-3-amine] | 25.1 to 158
0.398 to 3.16 | O=C(O)[C@H]1CN(c2cnc3ccc(-c4nc[nH]c4-c4cc(Cl)c(F)cc4F)nc3c2)CCN1 [Compound 7-3, (R)-4-(6-(5-(5-chloro-2,4-difluorophenyl)-1H-imidazol-4-yl)-1,5-naphthyridin-3-yl)piperazine-2-carboxylic acid] | 25.1 to 158
≤ 0.0316 | CC(C)NC1CC=C(c2cnc3ccc(-c4c[nH]nc4-c4ccc(F)c(F)c4)nc3c2)CC1 (stereo not drawn) [Compound 8-24, 4-(6-(3-(3,4-difluorophenyl)-1H-pyrazol-4-yl)-1,5-naphthyridin-3-yl)-N-isopropylcyclohex-3-en-1-amine] | ≤ 20
0.398 to 3.16 | COCc1cccc(-c2n[nH]cc2-c2ccc3ncc(N4CCC(N5CCN(C)CC5)CC4)cc3n2)c1 [Compound 14-2, 2-[3-(3-(methoxymethyl)phenyl]-1H-pyrazol-4-yl]-7-[4-(4-methylpiperazin-1-yl)-1-piperidyl]-1,5-naphthyridine] | 25.1 to 158
≤ 0.0316 | CNCCn1cc(-c2cnc3ccc(-c4nc[nH]c4-c4ccc(F)c(F)c4)nc3c2)cn1 [Compound 9-3, 2-(4-(6-(5-(3,4-difluorophenyl)-1H-imidazol-4-yl)-1,5-naphthyridin-3-yl)-1H-pyrazol-1-yl)-N-methylethan-1-amine] | ≤ 20
0.0398 to 0.316 | CN(C)C1CCN(c2cnc3ccc(-c4c(-c5cc(Cl)ccc5F)nc5ccccn45)nc3c2)C1 (racemic) [Compound 3-4, rac-(3S)-1-[6-[2-(5-chloro-2-fluoro-phenyl)imidazo[1,2-a]pyridin-3-yl]-1,5-naphthyridin-3-yl]-N,N-dimethyl-pyrrolidin-3-amine] | 200 to 1260
0.0398 to 0.316 | CN1CCN(CCNc2cnc3ccc(-c4c[nH]nc4-c4cc(Cl)c(F)cc4F)nc3c2)CC1 [Compound 6-2, 6-[3-(5-chloro-2,4-difluoro-phenyl)-1H-pyrazol-4-yl]-N-[2-(4-methylpiperazin-1-yl)ethyl]-1,5-naphthyridin-3-amine] | ≤ 20
0.398 to 3.16 | CNCCn1cc(-c2cnc3ccc(-c4c[nH]nc4-c4cccc(COC)c4)nc3c2)nn1 [Compound 14-15, 2-(4-(6-(3-(3-(methoxymethyl)phenyl)-1H-pyrazol-4-yl)-1,5-naphthyridin-3-yl)-1H-1,2,3-triazol-1-yl)-N-methylethan-1-amine] | 25.1 to 158
0.398 to 3.16 | Fc1cc(F)c(-c2n[nH]cc2-c2ccc3ncc(N4CC5CNC5C4)cc3n2)cc1Cl (stereo not drawn) [Compound 6-33, 2-[3-(5-chloro-2,4-difluoro-phenyl)-1H-pyrazol-4-yl]-7-(3,6-diazabicyclo[3.2.0]heptan-3-yl)-1,5-naphthyridine] | 25.1 to 158
≤ 0.0316 | NCCn1cc(-c2cnc3ccc(-c4c[nH]nc4-c4cc(Cl)c(F)cc4F)nc3c2)cn1 [Compound 6-41, 2-[4-[6-[3-(5-chloro-2,4-difluoro-phenyl)-1H-pyrazol-4-yl]-1,5-naphthyridin-3-yl]pyrazol-1-yl]ethanamine] | 25.1 to 158
0.398 to 3.16 | Fc1cc(F)c(-c2n[nH]cc2-c2ccc3ncccc3n2)cc1Cl [Compound 6-71, 2-[3-(5-chloro-2,4-difluoro-phenyl)-1H-pyrazol-4-yl]-1,5-naphthyridine] | 25.1 to 158

More lines, now with the values behind:

Structure (SMILES) | Ki [1] [nM] | IC50 [2] [nM]
Fc1ccc(Cl)cc1-c1n[nH]cc1-c1ccc2ncc(NCCN3CCC3)cc2n1 [Compound 1-8, N-[2-(azetidin-1-yl)ethyl]-6-[3-(5-chloro-2-fluoro-phenyl)-1H-pyrazol-4-yl]-1,5-naphthyridin-3-amine] | 0.0398 to 0.316 | ≤ 20
CC(C)N1CCCN(c2cnc3ccc(-c4c[nH]nc4-c4cc(Cl)ccc4F)nc3c2)CC1C (racemic) [Compound 1-82, 2-[3-(5-chloro-2-fluoro-phenyl)-1H-pyrazol-4-yl]-7-[rac-(3S)-4-isopropyl-3-methyl-1,4-diazepan-1-yl]-1,5-naphthyridine] | 0.398 to 3.16 | 25.1 to 158
CNCCn1cc(-c2cnc3ccc(-c4c[nH]nc4-c4cc(Cl)ccc4F)nc3c2)cn1 [Compound 1-87, 2-(4-(6-(3-(5-chloro-2-fluorophenyl)-1H-pyrazol-4-yl)-1,5-naphthyridin-3-yl)-1H-pyrazol-1-yl)-N-methylethan-1-amine] | ≤ 0.0316 | ≤ 20
Fc1ccc(Cl)cc1-c1n[nH]cc1-c1ccc2ncc(NCCN3CCNCC3)cc2n1 [Compound 1-21, 6-[3-(5-chloro-2-fluoro-phenyl)-1H-pyrazol-4-yl]-N-(2-piperazin-1-ylethyl)-1,5-naphthyridin-3-amine] | 0.0398 to 0.316 | 25.1 to 158
CNCCn1ccc(-c2cnc3ccc(-c4c[nH]nc4-c4cc(Cl)ccc4F)nc3c2)n1 [Compound 1-92, 2-[3-[6-[3-(5-chloro-2-fluoro-phenyl)-1H-pyrazol-4-yl]-1,5-naphthyridin-3-yl]pyrazol-1-yl]-N-methyl-ethanamine] | 0.0398 to 0.316 | ≤ 20
COC(=O)C1CN(CCNc2cnc3ccc(-c4c[nH]nc4-c4cc(Cl)ccc4F)nc3c2)CCN1 (stereo not drawn) [Compound 1-22, methyl 4-[2-[[6-[3-(5-chloro-2-fluoro-phenyl)-1H-pyrazol-4-yl]-1,5-naphthyridin-3-yl]amino]ethyl]piperazine-2-carboxylate] | 0.0398 to 0.316 | 25.1 to 158
CN1CC(Nc2cnc3ccc(-c4c[nH]nc4-c4cc(Cl)ccc4F)nc3c2)C1 [Compound 1-7, 6-[3-(5-chloro-2-fluoro-phenyl)-1H-pyrazol-4-yl]-N-(1-methylazetidin-3-yl)-1,5-naphthyridin-3-amine] | 0.0398 to 0.316 | ≤ 20
Fc1ccc(Cl)cc1-c1n[nH]cc1-c1ccc2ncc(C3CCNC3)cc2n1 (stereo not drawn) [Compound 1-99, 2-[3-(5-chloro-2-fluoro-phenyl)-1H-pyrazol-4-yl]-7-pyrrolidin-3-yl-1,5-naphthyridine] | 3.98 to 31.6 | 200 to 1260
CN1CCC(N(C)c2cnc3ccc(-c4c[nH]nc4-c4cc(Cl)ccc4F)nc3c2)C1 (racemic) [Compound 1-79, 6-[3-(5-chloro-2-fluoro-phenyl)-1H-pyrazol-4-yl]-N-methyl-N-[rac-(3R)-1-methylpyrrolidin-3-yl]-1,5-naphthyridin-3-amine] | 0.0398 to 0.316 | ≤ 20
Fc1ccc(Cl)cc1-c1n[nH]cc1-c1ccc2ncc(-c3[nH]nc4c3CCN4)cc2n1 [Compound 1-125, 2-[3-(5-chloro-2-fluoro-phenyl)-1H-pyrazol-4-yl]-7-(2,4,5,6-tetrahydropyrrolo[2,3-c]pyrazol-3-yl)-1,5-naphthyridine] | 0.0398 to 0.316 | 25.1 to 158
Fc1ccc(Cl)cc1-c1[nH]cnc1-c1ccc2ncc(-c3nnn4c3CNCC4)cc2n1 [Compound 2-23, 2-[5-(5-chloro-2-fluoro-phenyl)-1H-imidazol-4-yl]-7-(4,5,6,7-tetrahydrotriazolo[1,5-a]pyrazin-3-yl)-1,5-naphthyridine] | 0.0398 to 0.316 | 25.1 to 158
COC(=O)[C@H]1CN(c2cnc3ccc(-c4c[nH]nc4-c4cc(Cl)ccc4F)nc3c2)CCN1CCN [Compound 1-134, methyl (2R)-1-(2-aminoethyl)-4-[6-[3-(5-chloro-2-fluoro-phenyl)-1H-pyrazol-4-yl]-1,5-naphthyridin-3-yl]piperazine-2-carboxylate] | 0.398 to 3.16 | 25.1 to 158
OCCN1CCN(c2cnc3ccc(-c4c[nH]nc4-c4cc(Cl)ccc4F)nc3c2)CC1 [Compound 1-36, 2-[4-[6-[3-(5-chloro-2-fluoro-phenyl)-1H-pyrazol-4-yl]-1,5-naphthyridin-3-yl]piperazin-1-yl]ethanol] | 0.0398 to 0.316 | 25.1 to 158
Fc1ccc(Cl)cc1-c1n[nH]cc1-c1ccc2ncc(NCC3CN4CCN3CC4)cc2n1 (stereo not drawn) [Compound 1-10, 6-[3-(5-chloro-2-fluoro-phenyl)-1H-pyrazol-4-yl]-N-(1,4-diazabicyclo[2.2.2]octan-2-ylmethyl)-1,5-naphthyridin-3-amine] | 0.0398 to 0.316 | ≤ 20
